Test results published in PMC12603070, “A high-throughput screening approach to discover potential colorectal cancer chemotherapeutics: repurposing drugs to identify novel disruptors of 14-3-3 proteins” (Cell Death & Disease, 2025).
Like-named read-outs stand apart in the source and are kept apart here.

What was measured:
[1] = target: T1, 14-3-3ζ-Rluc8:112-136F-mC complex (Homo sapiens, UniProt P63104); assay: Co-immunoprecipitation of 14-3-3ζ-Rluc8:112-136F-mC complex; format: cell-based; details: NIH-3T3 expressing BRET sensor, 20 μM, 3 h, vs DMSO
T1 construct: expressed in transfected cells; host or cells: NIH-3T3 fibroblasts, bi-directional pBI-CMV1 plasmid
T1 sequence (P63104 1-245): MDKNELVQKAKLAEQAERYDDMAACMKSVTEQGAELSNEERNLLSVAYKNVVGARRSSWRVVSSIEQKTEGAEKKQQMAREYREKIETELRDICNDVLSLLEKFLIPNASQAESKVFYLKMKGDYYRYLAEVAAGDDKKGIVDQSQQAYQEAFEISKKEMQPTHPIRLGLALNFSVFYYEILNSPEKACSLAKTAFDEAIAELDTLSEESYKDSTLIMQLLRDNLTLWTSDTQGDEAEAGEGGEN
Procedure: NIH-3T3 cells were plated in 10 cm culture dishes at a density of 550,000 cells per dish. Transfection was conducted 48 h post-seeding. At 48 h post-transfection, DMSO or FTY-720 (20 μM) was added to the culture media and incubated with cells expressing the BRET-sensor for 3 h. Cell lysates were collected using RIPA buffer (0.9% NaCl, 1% v/v triton X-100, 0.5% sodium deoxycholate, 0.1% SDS, and 0.6% tris base), supplemented with protease inhibitor cocktail (Sigma-Aldrich; #P8340). The protein concentration was determined using the Bradford assay. Equal amounts of protein (100 μg) were subjected to immunoprecipitation using 1 μg anti-GFP antibody per sample (Invitrogen; #A-11120) and protein A/G magnetic beads (Thermo Fisher Scientific, Massachusetts, USA; #80104G), according to the manufacturer’s instructions. Antibodies against GFP were used to precipitate mCitrine due to the high degree of sequence homology. Immunoprecipitated proteins were eluted by boiling the beads in 1 X Laemmli protein sample buffer (Bio-Rad, California, USA; #1610747) for 5 min. Eluted samples were resolved in 10% SDS-PAGE gels and transferred to PVDF membranes (Bio-Rad, California, USA; #10026933) using the Trans-Blot Turbo transfer system (Bio-Rad). […] Protein bands were detected using Clarity Max western ECL substrate. […]

[2] = tested on: BAD translocation to mitochondria in NIH-3T3 cells; assay: Confocal imaging of BAD-mCitrine translocation to TMRE-labeled mitochondria in NIH-3T3; format: cell-based; details: NIH-3T3 expressing BAD-mCitrine; R18 10 µM, FTY720 2 µM; 24 h
Procedure: To visualize BAD translocation, 35 mm glass-bottom dishes (ibidi, Gräfelfing, Germany; #81158) were coated with 0.1 mg/mL Poly-D-lysine hydrobromide for 2 h at 37 °C. After coating, dishes were washed twice with sterilized water. Subsequently, cells transfected with BAD-mCitrine were seeded at a density of 20,000 cells per dish and incubated for 24 h to allow for cell attachment. For live-cell imaging, cells were then incubated for 1 h with the mitochondrial membrane potential dye tetramethylrhodamine ethyl ester (TMRE, Invitrogen; #T668) at a final concentration of 100 nM, according to the manufacturer’s instructions. Images were acquired on a Zeiss (Oberkochen, Germany) LSM-900 Airyscan inverted confocal microscope equipped with an environmental incubation system, laser lines including 488 and 561 nm, and an oil immersion 60×/1.40 Plan achromat objective. The signal from the YFP fluorophore (ex. 488 nm, det. 525–542 nm) and the TMRE (ex. 561 nm, det. 600–700 nm) were collected in super-resolution mode. The cell viability dye, DRAQ (BioLegend, California, USA; #424101), was added to the medium at a 1:1000 dilution from the commercial stock and incubated at room temperature for 30 min prior to live-cell imaging. To quantify the colocalization of BAD-mCitrine and the mitochondria labeled with the TMRE, the JACoP plugin in ImageJ was employed. […]

Caco-2 cells = format: cell-based
Excerpt: A high-content imaging system (PerkinElmer; Operetta CLS), was used to quantify cell death and apoptosis by calculating the number of propidium iodide-positive cells relative to Hoechst-positive cells, and the number of Annexin V-positive cells relative to Hoechst-positive cells, respectively.

[3] = tested on: BAD translocation to mitochondria in Caco-2 and HT-29 cells; assay: Confocal imaging of BAD-mCitrine translocation to mitochondria in CRC cells; format: cell-based, human; details: 2 µM, 24 h post-treatment
Procedure: To visualize BAD translocation, 35 mm glass-bottom dishes (ibidi, Gräfelfing, Germany; #81158) were coated with 0.1 mg/mL Poly-D-lysine hydrobromide for 2 h at 37 °C. After coating, dishes were washed twice with sterilized water. Subsequently, cells transfected with BAD-mCitrine were seeded at a density of 20,000 cells per dish and incubated for 24 h to allow for cell attachment. For live-cell imaging, cells were then incubated for 1 h with the mitochondrial membrane potential dye tetramethylrhodamine ethyl ester (TMRE, Invitrogen; #T668) at a final concentration of 100 nM, according to the manufacturer’s instructions. Images were acquired on a Zeiss (Oberkochen, Germany) LSM-900 Airyscan inverted confocal microscope equipped with an environmental incubation system, laser lines including 488 and 561 nm, and an oil immersion 60×/1.40 Plan achromat objective. The signal from the YFP fluorophore (ex. 488 nm, det. 525–542 nm) and the TMRE (ex. 561 nm, det. 600–700 nm) were collected in super-resolution mode. The cell viability dye, DRAQ (BioLegend, California, USA; #424101), was added to the medium at a 1:1000 dilution from the commercial stock and incubated at room temperature for 30 min prior to live-cell imaging. To quantify the colocalization of BAD-mCitrine and the mitochondria labeled with the TMRE, the JACoP plugin in ImageJ was employed. A correlation analysis was performed based on Pearson’s coefficient between pixel-gray values for the two channels.

HT-29 and Caco-2 cells = assay: Annexin V/propidium iodide apoptosis and caspase dependence (Z-VAD-FMK) in HT-29 and Caco-2; format: cell-based, human; details: for Kinetics of induction of cell death and apoptosis: time courses of PI and Annexin V incorporation, HT-29 and Caco-2, 5 and 10 µM
Procedure: (§1) Cells were plated at a density of 20,000 cells/well into 96-well plates (PerkinElmer; #6055302) and incubated overnight at 37 °C before the addition of the drugs. One hour prior to imaging, Hoechst 33342 (Invitrogen, #H3570) and propidium iodide (Invitrogen; #P3566) were added to the wells to achieve final concentrations of 50 ng/ml and 0.5 μg/ml, respectively. To measure apoptosis, AlexaFluor 488-conjugated Annexin V (ThermoFisher, Massachusetts, USA; #A13201) was also added at a dilution of 1:400 from the commercial stock. A high-content imaging system (PerkinElmer; Operetta CLS), was used to quantify cell death and apoptosis by calculating the number of propidium iodide-positive cells relative to Hoechst-positive cells, and the number of Annexin V-positive cells relative to Hoechst-positive cells, respectively. To assess caspase-dependent apoptosis, cells were pre-treated for 30 min with the caspase inhibitor Z-VAD-FMK (BD Biosciences, New Jersey, USA; #550377; 20 μM) or the negative control Z-FA-FMK (BD Biosciences; #550411; 20 μM) prior to the incubation of drugs.

[4] = tested on: HT-29 and Caco-2 CRC cells; assay: Cell death in CRC cells, statements covering both HT-29 and Caco-2 (screen at 20 µM, dose-response); format: cell-based, human; details: dose-response 2.5-20 µM in HT-29 and Caco-2
Procedure: as §1

[5] = lomitapide-treated Caco-2 cells, 10 μM, 48 h

| Abundance of 14-3-3ζ-Rluc8 within the co-immunoprecipitated complex [1] | Compound | BAD translocation to TMRE-labeled mitochondria [2] | %Cell death Caco-2 (Caco-2 cells; Caco-2) [%] | Mitochondrial translocation of BAD [3] | Effect of Z-VAD-FMK on annexin V incorporation (HT-29 and Caco-2 cells; [5]) | Lowest concentration that significantly induced cell death [4] [µM] | Percentage of cell death % 24h CACO-2 (Caco-2 cells; 20 µM, 24 h) [%] | Percentage of cell death % 48h, Caco-2 (Caco-2 cells; Caco-2, 48h, 20 μM) [%] | %Cell death Caco-2 (Caco-2 cells; Caco-2, time not given, text says 48 h) [%] | Effect of Z-VAD-FMK on propidium iodide incorporation (Caco-2 cells; [5]) | Kinetics of induction of cell death and apoptosis (HT-29 and Caco-2 cells) |
| --- | --- | --- | --- | --- | --- | --- | --- | --- | --- | --- | --- |
| reduced | CCCCCCCCc1ccc(CCC(N)(CO)CO)cc1 [Fingolimod (FTY720), Fingolimod] | promoted BAD translocation | 67.9 | – | – | – | – | – | – | – | – |
| – | O=C(NC1CCN(CCCCC2(C(=O)NCC(F)(F)F)c3ccccc3-c3ccccc32)CC1)c1ccccc1-c1ccc(C(F)(F)F)cc1 [Lomitapide] | – | – | Mitochondrial translocation of BAD was observed | preventing annexin V incorporation | 5 | 66.0871 | 81.7295 | 81.7 | no effect | – |
| – | OC1(c2ccc(Cl)c(C(F)(F)F)c2)CCN(CCCC(c2ccc(F)cc2)c2ccc(F)cc2)CC1 [Penfluridol] | – | 90.0 | Mitochondrial translocation of BAD was observed | – | 5 | – | – | – | – | more rapidly than lomitapide |
| – | CC(C)(C)c1ccc(C(O)CCCN2CCC(C(O)(c3ccccc3)c3ccccc3)CC2)cc1 (stereo not drawn) [Terfenadine] | – | 79.7 | Mitochondrial translocation of BAD was observed | – | 5 | – | – | – | – | more rapidly than lomitapide |
